In US20140301961A1, “COMPOUNDS WITH ANTI-AGING ACTIVITIES” (priority 2011, published 2014):

What was measured:
[1] = test system: interleukin-6 [IL-6]; test: Interleukin-6 production in PMA-stimulated dermal fibroblasts; format: cell-based, human; details: PMA 10 nM (FIG. 7)
Experimental: Human dermal fibroblast cell cultures were prepared according to Example 3.1. To induce inflammation in the cells PMA (phorbol myristate acetate) (ex. Sigma) was used at a concentration of 10 nM. […] The cells were stimulated for 24 h and the culture supernatant was collected and stored at −20° C. until further analysis
Experimental method as outlined in Example 3.1 was modified in order to analyze IL-6 levels extracted from dermal fibroblasts stimulated for 6 days with all-trans retinoic acid, retinol, arachidonic acid, β-aescin, and […] (ethyl ester) at a range of concentrations. Experiments were performed in duplicates.

[2] = test system: MMP-1, MMP-2, MMP-3, MMP-8, MMP-9; test: UV-induced MMP production in human skin explants; format: cell-based; details: 1% in propylene glycol (FIG. 2)
Experimental: MMP inhibition activity for compound of the invention was tested on human skin explants. Skin explants were sourced from 2 healthy caucasian female breast skin donor […]. A cream containing all-trans retinoic acid (tretinoin) (0.05%) was added topically using positive displacement pipette (5 ul/cm^2) to each explants. A similar cream base without tretinoin was used as placebo control. […] Solutions were kept under nitrogen and used immediately after preparation. Propylene glycol was used as vehicle control for the compounds of the invention in this study. Fluorokine MultiAnalyte Profiling (xMAP) using the BioPlex (ex. Biorad) dual laser flow-based sorting and detection analyzers manufactured by Luminex corporation (Luminex, Austin, Tex.) was employed to measure levels of MMP in conditioned media samples of stimulated dermal fibroblasts. The technology incorporated polystyrene microspheres dyed internally with differing ratios of two spectrally distinct fluorophores to create a family of different spectrally addressed bead sets. […] Samples were analyzed using the Bio-Plex suspension array system and Bio-Plex Manager software 4.0 (Bio-Rad Laboratories, Hercules, Calif.). Quantities were determined by comparison to standard curves obtained for the different MMP.

[3] = test system: Plasminogen activator (PLAT); test: Plasminogen activator (PLAT) activation
[4] = test system: heparin-binding EGF-like growth factor (HBEGF); test: Affymetrix gene array on skin explants, HBEGF; format: cell-based, human; details: topical, 24 hours, cut-off |log 2−ratio|>1
Excerpt: (§1) Subcutaneous fat from full thickness skin, obtained from surgical waste material from breast reduction procedures, was removed with a scalpel. Three healthy Caucasian female donors were used for this study. The female donors differed from those of the skin-treatment study outlined previously 8 mm punch biopsies were taken from the skin (and these biopsies are now referred to as skin explants). Skin explants were put on Milipore cell culture inserts (12 mm diameter). Inserts containing skin explants were put in 6-well plates (one insert/well) and 1 mL of supplemented keratinocyte medium (ex Cascade Biologics) was added to each well. A tretinoin-containing cream (Aberela® ex. Janssen): 0.05% tretinoin in the cream, was applied topically to each explant (5 μL/cm^2) using a positive displacement pipette. A placebo cream without tretinoin was used as a control. The skin explants were incubated with tretinoin for 24 hours at 37° C. in 5% CO2-humidified air.
(§2) RNA concentration was measured with ND-1000 spectrophotometer (ex. NanoDrop Technologies) and RNA quality was evaluated using the Agilent 2100 bioanalyzer system (ex. Agilent Technologies). 250 nanograms of total RNA from each skin or skin explant sample was used to prepare biotinylated fragmented cRNA according to the GeneChip® 3′IVT Express Kit Manual (PN702646 Rev 1, ex. Affymetrix Inc.). Affymetrix GeneChip® expression arrays (Human Genome U133 Plus 2.0) were hybridized for 16 hours in a 45° C. incubator, rotated at 60 rpm. According to the GeneChip Expression Wash, Stain and Scan Manual (PN 702731 Rev 2, ex. Affymetrix Inc.) the arrays were washed and stained using the Fluidics Station 450 and scanned using the GeneChip® Scanner 3000 7G.
Analysis of the gene expression data was carried out in the statistical computing language R (http://www.r-project.org) using packages available from the Bioconductor project (www.bioconductor.org). The raw data was normalized using the robust multi-array average (RMA) method. […]

[5] = test system: connective tissue growth factor (CTGF); test: Affymetrix gene array on skin explants, CTGF; format: cell-based, human; details: topical, 24 hours, cut-off |log 2−ratio|>1
Excerpt: as §1, §2
Analysis of the gene expression data was carried out in the statistical computing language R (http://www.r-project.org) using packages available from the Bioconductor project (www.bioconductor.org). The raw data was normalized using the robust multi-array average (RMA) method. In order to search for differentially expressed genes between the X samples and the Y samples group an empirical Bayes moderated t-test was then applied using the ‘limma’ package.
Skin explants were obtained as detailed in Example 3.1. Compounds naringenin and N-acetyl aspartic acid were topically applied on skin explants for 24 hours and investigated with Affymetrix gene array.

[6] = In vitro skin permeation, static Franz diffusion cells; format: in vitro ADME; details: 0.5% w/w in a basic formulation, topical, 24 hours, pig skin (FIG. 1)
Excerpt: The in vitro skin permeation experiments were developed and validated according to the Organization for Economic Co-Operation and Development adopted guideline 428 (OECD guideline for the testing of chemicals. Skin absorption: in vitro method. Guideline 428 (Paris, April 2004, updated January 2011)).
For this investigation, static Franz glass diffusion cells (Permegear, USA) were used. These cells consist of donor and receptor chambers in between which a piece of porcine skin was positioned (thickness 800 μm). About 20 mg/cm^2 of each formulation were applied on the skin surface through the donor compartment in triplicate for each formulation. The pig skin samples were equilibrated for 30 minutes, and air bubbles were removed. The cells were kept at constant temperature with a circulating water flow at 37° C. and the receptor compartment content (ethanol/water 50:50) was continuously agitated by magnetic stirrers.
After an exposure time of 24 hours, the diffusion cells were dismounted and each active was analysed in each compartment. • the non absorbable dose: the skin surface was washed with 10.0 ml of methanol and one tape-strip was made in order to remove the residual donor samples. • the potentially absorbable dose: the tape stripping procedure was used in order to separate the stratum corneum from the skin sample. […]

[7] = test system: human reconstructed epidermis (SkinEthic model); test: In vitro skin irritation, OECD guideline 439; format: cell-based; details: pure compound, cytotoxicity assay on reconstructed epidermis
Experimental: The studies, aimed at evaluating the capability of the test compound to induce skin irritation effects by a cytotoxicity assay on in vitro human reconstructed epidermis (SkinEthic), were carried out according to the ECVAM protocol of Apr. 27, 2007, the B46 method of the official journal of the European union, dated Aug. 14, 2009 and the OECD guideline 439.

[8] = test system: keratin 6; test: Keratin-6 production in normal human keratinocytes; format: cell-based; details: normal human keratinocytes (FIG. 11)

Row | penetration into the skin [6] | Structure (SMILES) | interleukin-6 production [1] | inhibition of UV-induced MMP-1, MMP-2, MMP-3, MMP-8, MMP-9 production [2] | Plasminogen activator (PLAT) activation [3] | HBEGF gene expression [4] | CTGF gene expression [5] [log 2−ratio] | skin irritation [7] | keratin-6 production [8]
1 |  | C=C1C[C@]23C[C@@]1(O)CC[C@H]2[C@@]12C=C[C@H](O)[C@@](C)(C(=O)O1)[C@@H]2[C@@H]3C(=O)O [Gibberellic acid, (3S,3aS,4S,4aS,7S,9aR,9bR,12S)-7,12-dihydroxy-3-methyl-6-methylene-2-oxoperhydro-4a,7-methano-9b,3-propenoazuleno[1,2-b]furan-4-carboxylic acid] | inhibit interleukin-6 production | inhibition | activated |  |  |  | 
2 | penetration of each active into the skin | CC(=O)N[C@@H](CC(=O)O)C(=O)O [N-Acetyl aspartic acid, (2S)-2-Acetamidobutanedioic acid] | inhibit interleukin-6 production | inhibition | activated | No | 1.03 | non-irritating to skin | 
3 | penetration of each active into the skin | O=C1C[C@@H](c2ccc(O)cc2)Oc2cc(O)cc(O)c21 [Naringenin, (S)-2,3-Dihydro-5,7-dihydroxy-2-(4-hydroxyphenyl)-4H-1-benzopyran-4-one] | inhibit interleukin-6 production |  |  | 1.19 log 2−ratio | 1.05 | non-irritating to skin | stimulated keratin-6 production
